Holding throughout (assay type): biochemical
For one assay, the target named is PI3Kα (Homo sapiens, UniProt P42336). The assay is described as follows: PI3K-alpha fluorescence polarization assay. The following applies: read-out: PI3Kα Median IC50.
For the next assay, the target named is PI3Kγ (Homo sapiens, UniProt P48736). The assay is described as follows: PI3K-gamma fluorescence polarization assay. As to conditions: read-out: PI3Kγ Median IC50. (Fluorescence polarisation rises when a labelled molecule tumbles more slowly, as on binding a larger partner.)
The next assay addresses mTOR (Homo sapiens, UniProt P42345). The assay is described as follows: mTOR enzyme assay (DELFIA format, His6-S6K substrate). As to conditions: read-out: mTOR Kinase Median IC50.

These results are taken from US20090298820A1, “3-SUBSTITUTED-1H-PYRROLO[2,3-B]PYRIDINE AND 3-SUBSTITUTED-1H-PYRROLO[3,2-B]PYRIDINE COMPOUNDS, THEIR USE AS MTOR KINASE AND PI3 KINASE INHIBITORS, AND THEIR SYNTHESES” (Wyeth, priority 2008, published 2009).

PI3Kγ, sequence (P48736 whole entry, species assumed): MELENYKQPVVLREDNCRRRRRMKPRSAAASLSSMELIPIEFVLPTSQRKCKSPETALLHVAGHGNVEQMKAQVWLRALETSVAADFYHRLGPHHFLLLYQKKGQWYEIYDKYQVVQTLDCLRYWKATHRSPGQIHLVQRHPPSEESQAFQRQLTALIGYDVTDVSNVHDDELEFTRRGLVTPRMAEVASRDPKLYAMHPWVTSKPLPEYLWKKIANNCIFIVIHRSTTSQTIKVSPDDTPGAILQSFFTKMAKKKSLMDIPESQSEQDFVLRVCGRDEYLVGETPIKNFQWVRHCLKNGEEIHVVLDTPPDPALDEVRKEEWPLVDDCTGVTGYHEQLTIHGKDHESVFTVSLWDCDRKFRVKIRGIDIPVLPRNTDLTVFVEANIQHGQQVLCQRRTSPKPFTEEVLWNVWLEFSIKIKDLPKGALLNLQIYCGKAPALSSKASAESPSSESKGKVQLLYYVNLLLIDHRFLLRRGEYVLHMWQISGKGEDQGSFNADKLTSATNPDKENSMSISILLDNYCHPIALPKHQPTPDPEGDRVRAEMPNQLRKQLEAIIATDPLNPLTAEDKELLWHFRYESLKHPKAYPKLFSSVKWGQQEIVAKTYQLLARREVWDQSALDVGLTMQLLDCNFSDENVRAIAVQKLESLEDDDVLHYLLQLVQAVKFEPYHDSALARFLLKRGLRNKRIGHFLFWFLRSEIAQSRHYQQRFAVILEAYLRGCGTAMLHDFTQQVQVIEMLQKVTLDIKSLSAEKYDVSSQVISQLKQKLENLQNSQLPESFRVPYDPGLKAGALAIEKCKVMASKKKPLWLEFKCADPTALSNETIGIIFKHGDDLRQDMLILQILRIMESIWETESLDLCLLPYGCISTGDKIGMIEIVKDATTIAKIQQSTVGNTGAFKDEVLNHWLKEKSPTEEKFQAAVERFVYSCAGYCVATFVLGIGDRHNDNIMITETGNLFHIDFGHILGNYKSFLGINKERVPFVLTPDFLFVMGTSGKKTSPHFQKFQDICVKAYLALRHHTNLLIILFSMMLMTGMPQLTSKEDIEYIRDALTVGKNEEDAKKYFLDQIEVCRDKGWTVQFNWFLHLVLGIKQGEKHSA
PI3Kα, sequence (P42336 whole entry, species assumed): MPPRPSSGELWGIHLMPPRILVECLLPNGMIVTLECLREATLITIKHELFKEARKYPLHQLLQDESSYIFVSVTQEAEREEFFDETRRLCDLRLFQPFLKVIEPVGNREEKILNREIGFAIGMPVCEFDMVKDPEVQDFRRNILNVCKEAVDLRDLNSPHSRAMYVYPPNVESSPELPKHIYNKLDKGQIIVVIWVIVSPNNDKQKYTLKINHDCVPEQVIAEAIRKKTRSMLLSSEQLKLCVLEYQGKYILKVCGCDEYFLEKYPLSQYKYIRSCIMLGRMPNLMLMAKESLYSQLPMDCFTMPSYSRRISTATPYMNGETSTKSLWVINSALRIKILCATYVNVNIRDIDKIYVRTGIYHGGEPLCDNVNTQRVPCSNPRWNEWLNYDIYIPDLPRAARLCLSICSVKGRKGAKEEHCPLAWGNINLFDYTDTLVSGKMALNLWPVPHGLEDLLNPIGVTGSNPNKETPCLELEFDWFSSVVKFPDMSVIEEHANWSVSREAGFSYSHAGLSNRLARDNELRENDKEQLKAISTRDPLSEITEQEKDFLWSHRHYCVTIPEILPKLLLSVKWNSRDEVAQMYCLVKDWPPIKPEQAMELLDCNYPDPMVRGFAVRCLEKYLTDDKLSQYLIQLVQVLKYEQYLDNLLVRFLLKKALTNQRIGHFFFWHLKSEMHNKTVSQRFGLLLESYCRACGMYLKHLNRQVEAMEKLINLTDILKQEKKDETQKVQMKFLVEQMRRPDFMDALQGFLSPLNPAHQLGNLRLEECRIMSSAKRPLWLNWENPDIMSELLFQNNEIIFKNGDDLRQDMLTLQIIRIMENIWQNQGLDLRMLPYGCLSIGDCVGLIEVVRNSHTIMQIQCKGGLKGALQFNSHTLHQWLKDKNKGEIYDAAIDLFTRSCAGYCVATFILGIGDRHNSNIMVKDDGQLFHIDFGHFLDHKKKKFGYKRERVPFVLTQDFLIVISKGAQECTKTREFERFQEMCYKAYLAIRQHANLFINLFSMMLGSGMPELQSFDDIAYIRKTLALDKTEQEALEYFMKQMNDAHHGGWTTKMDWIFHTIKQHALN
PI3Kα, sequence (P27986 whole entry partner, species assumed): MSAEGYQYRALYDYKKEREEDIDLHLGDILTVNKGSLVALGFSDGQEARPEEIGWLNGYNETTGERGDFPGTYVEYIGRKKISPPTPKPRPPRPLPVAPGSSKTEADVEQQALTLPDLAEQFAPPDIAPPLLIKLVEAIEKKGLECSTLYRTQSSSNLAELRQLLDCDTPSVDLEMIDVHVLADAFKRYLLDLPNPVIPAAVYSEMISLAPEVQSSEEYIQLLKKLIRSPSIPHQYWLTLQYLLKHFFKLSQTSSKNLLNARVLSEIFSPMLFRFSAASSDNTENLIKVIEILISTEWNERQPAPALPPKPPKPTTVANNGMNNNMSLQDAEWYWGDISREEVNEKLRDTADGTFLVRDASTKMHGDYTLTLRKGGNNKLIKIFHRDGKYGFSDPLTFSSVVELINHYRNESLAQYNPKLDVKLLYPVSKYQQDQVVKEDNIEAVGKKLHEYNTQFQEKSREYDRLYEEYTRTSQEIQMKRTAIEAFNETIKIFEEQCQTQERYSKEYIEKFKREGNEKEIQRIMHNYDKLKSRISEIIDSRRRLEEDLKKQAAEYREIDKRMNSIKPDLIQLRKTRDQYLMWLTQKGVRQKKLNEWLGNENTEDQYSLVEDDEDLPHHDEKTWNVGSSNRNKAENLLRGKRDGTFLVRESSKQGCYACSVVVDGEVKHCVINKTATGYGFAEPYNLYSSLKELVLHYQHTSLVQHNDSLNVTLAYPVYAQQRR

For orientation: IC50 means the concentration that inhibits the measured activity by half. As to `Cn1cc(C=C2Oc3c(ccc(O)c3O)C2=O)c2cccnc21` [Compound 2, 6,7-dihydroxy-2-[(1-methyl-1H-pyrrolo[2,3-b]pyridin-3-yl)methylene]-1-benzofuran-3(2H)-one], the half-inhibitory concentration (IC50) at PI3Kα worked out at 2340 nM.

Regarding `COc1ccc2c(n1)c(C=C1Oc3c(ccc(O)c3O)C1=O)cn2C` [Compound 4, 6,7-dihydroxy-2-[(5-methoxy-1-methyl-1H-pyrrolo[3,2-b]pyridin-3-yl)methylene]-1-benzofuran-3(2H)-one], the concentration for half-maximal inhibition (IC50) on PI3Kα amounted to 676 nM; on PI3Kγ it was 8500 nM.

As for `CN1CCN(CCCn2cc(C=C3Oc4cc(O)cc(O)c4C3=O)c3cccnc32)CC1` [Compound 6, 4,6-dihydroxy-2-({1-[3-(4-methylpiperazin-1-yl)propyl]-1H-pyrrolo[2,3-b]pyridin-3-yl}methylene)-1-benzofuran-3(2H)-one], the half-inhibitory concentration (IC50) on PI3Kα was 5890 nM; at PI3Kγ it was over 10000 nM.

Take `O=C1C(=Cc2cn(CCCN3CCOCC3)c3ncccc23)Oc2cc(O)cc(O)c21` [Compound 7, 4,6-dihydroxy-2-{[1-(3-morpholin-4-ylpropyl)-1H-pyrrolo[2,3-b]pyridin-3-yl]methylene}-1-benzofuran-3(2H)-one]: the results for the 50% inhibitory concentration (IC50) at PI3Kα and at PI3Kγ were 921 nM and over 10000 nM, respectively.

Take `CN1CCN(CCCn2cc(C=C3Oc4c(ccc(O)c4O)C3=O)c3cccnc32)CC1` [Compound 8, 6,7-dihydroxy-2-({1-[3-(4-methylpiperazin-1-yl)propyl]-1H-pyrrolo[2,3-b]pyridin-3-yl}methylene)-1-benzofuran-3(2H)-one]: the half-maximal inhibitory concentration (IC50) on PI3Kα worked out at 203 nM; on PI3Kγ it was 9000 nM.

For `O=C1C(=Cc2cn(CCCN3CCOCC3)c3ncccc23)Oc2c1ccc(O)c2O` [Compound 9, 6,7-dihydroxy-2-{[1-(3-morpholin-4-ylpropyl)-1H-pyrrolo[2,3-b]pyridin-3-yl]methylene}-1-benzofuran-3(2H)-one], the IC50 on PI3Kα came to 135 nM; on PI3Kγ it was 9170 nM.

For the compound `O=C1C(=Cc2cn(CCCN3CCN(CCO)CC3)c3ncccc23)Oc2c1ccc(O)c2O` [Compound 10, 6,7-dihydroxy-2-[(1-{3-[4-(2-hydroxyethyl)piperazin-1-yl]propyl}-1H-pyrrolo[2,3-b]pyridin-3-yl)methylene]-1-benzofuran-3(2H)-one], the 50% inhibitory concentration (IC50) at PI3Kα and at PI3Kγ was over 10000 nM throughout.

With `Cn1cc(/C=C2\Oc3cc(O)cc(O)c3C2=O)c2c(-c3ccc(OC(F)(F)F)cc3)ccnc21` [Compound 15, (2Z)-4,6-dihydroxy-2-({1-methyl-4-[4-(trifluoromethoxy)phenyl]-1H-pyrrolo[2,3-b]pyridin-3-yl}methylene)-1-benzofuran-3(2H)-one], the IC50 on mTOR was 1 nM.

Regarding `CN1CCN(c2ccnc3c2c(/C=C2\Oc4cc(O)cc(O)c4C2=O)cn3C)CC1` [Compound 44, (2Z)-4,6-dihydroxy-2-{[1-methyl-4-(4-methylpiperazin-1-yl)-1H-pyrrolo[2,3-b]pyridin-3-yl]methylene}-1-benzofuran-3(2H)-one], the IC50 on PI3Kα was found to be 44 nM; at PI3Kγ, 200 nM.

Consider `Cn1cc(/C=C2\Oc3cccc(O)c3C2=O)c2c(-c3ccc(C(=O)N4CCOCC4)cc3)ccnc21` [Compound 128, (2Z)-4-hydroxy-2-({1-methyl-4-[4-(morpholin-4-ylcarbonyl)phenyl]-1H-pyrrolo[2,3-b]pyridin-3-yl}methylene)-1-benzofuran-3(2H)-one], for which, at mTOR, the IC50 was 0.5 nM.

Turning to `Cn1cc(/C=C2\Oc3ccc(NC(=O)NC4CCCCC4)cc3C2=O)c2c(N3CC4CCC(C3)O4)ccnc21` [Compound 236, 1-cyclohexyl-3-[(2Z)-2-{[1-methyl-4-(8-oxa-3-azabicyclo[3.2.1]oct-3-yl)-1H-pyrrolo[2,3-b]pyridin-3-yl]methylidene}-3-oxo-2,3-dihydro-1-benzofuran-5-yl]urea], the IC50 was 1470 nM at PI3Kα and 2970 nM on PI3Kγ.
